Data on four compounds can be found in patent US7220755B2, “42-O-alkoxyalkyl rapamycin derivatives and compositions comprising same” (Biosensors International Group, Ltd., priority 2003, dated 2007).

Entries after “also recorded” stand apart in the source; their conditions may differ.

Data set [1] concerns pig coronary artery (restenosis after overstretch injury). Put plainly: Pig coronary artery overstretch injury model with drug-eluting stents. The format is in vivo. The following applies: for Diameter stenosis: lower score indicates higher efficacy. How it is done:
In another study, stents carrying 42-O-(2-ethoxyethyl) rapamycin in the form of a polymer (poly-dl-lactic acid) coating were prepared for insertion into pigs with a vessel overstretch injury to the coronary artery. Comparative and control stents includes bare metal stents, stents having a polymer coating of poly-dl-lactic acid absent drug, stents carrying rapamycin in a poly-dl-lactic acid polymer coating, and stents carrying everolimus in a poly-dl-lactic acid polymer coating. The stents were inserted into vessels which seriously injured (averaging approximately 36% overstretch injury of the vessel) using an angioplasty balloon. […] In this way, it was possible to assess the relative effectiveness of the various test compounds presented to the vessels on the same metal stent/polymer platform. At the time of insertion, the extent of overstretch was recorded as a percent balloon/artery (B/A) ratio.

Data set [2] deals with porcine smooth muscle cells. The experiment in a line: In vitro potency: growth suppression of smooth muscle cell cultures (porcine). Format: cell-based. The following applies: over five orders of magnitude concentration.
Data set [3] deals with human smooth muscle cells. The experiment in a line: In vitro potency: growth suppression of smooth muscle cell cultures (human). The format is cell-based. The settings on record: FIG. 2, over five orders of magnitude concentration. How it is done:
The ability of the cell culture to reproduce was assessed after drug exposure by addition of a colored reagent which causes a color change in the surviving cells, followed by cell cytometry. The ability of the cells to migrate was assessed when cells from the culture moved through a porous membrane barrier adjacent the culture, and again by staining and cell cytometry. The results of these tests are shown in FIG. 2 for human smooth muscle cells.

Data set [4] has as its system pig coronary arteries (restenosis). Put plainly: 30-day implantation of drug-eluting stents in pig coronary arteries (late loss vs injury score). The settings on record: 30 days in pig vessels; for intercept of the zero injury (late loss) / neointimal response to injury (slope of the regression line of late loss vs injury score): FIG. 10.
Description: After preparation of the stents having a polymer-drug coating, they were implanted, as described in Example 5, into pigs for a thirty day period.
As described in Example 5, nine stents eluting 42-O-(2-ethoxyethyl) rapamycin from a polymer layer of poly-lactic acid were implanted in pigs and six control, bare metal stents were implanted. […] Quantitative coronary angiography was performed to measure the vessel lumen diameter immediately before and after stent placement and also 30 days later just prior to the follow-up angiogram taken at animal sacrifice. […] Percent stenosis (% stenosis) was determined from the measurements as: % Stenosis=[(RVD−MLD)/RVD]×100 where MLD is minimum lumen diameter and RVD is distal and proximal reference vessel diameter. The stent to artery ratio was also calculated from these measurements. The angiographic percent stenosis was calculated from the measurements of minimum lumen diameter obtained at the follow-up angiogram.
The photographs in FIGS. 5–9 permit determination via planimetry of the area of new tissue inside the stent after 30 days in vivo. The average thickness of new tissue formed inside the stent for each implant was determined and plotted against an injury score, also determined after the 30 day test period. A least-squares linear regression analysis of the data provides a sensitive method to compare the therapeutic benefit of different stent compositions.
The degree of vascular injury was also quantified by assigning an “injury score” based on the amount and length of tear of the different wall structures. The degree of injury was calculated as follows: • 0=intact internal elastic lamina • 1=ruptured internal elastic lamina with exposure to superficial medial layers (minor injury) • 2=ruptured internal elastic lamina with exposure to deeper medial layers (medial dissection) • 3=ruptured external elastic lamina with exposure to the adventitia. The mean injury score for each arterial segment was calculated by dividing the sum of injury scores at each stent strut site by the total number of stent struts in the proximal, middle, and distal stent sections using the method described by Schwartz et al. (J. Am. Coll. Cardiol., 19:267–274 (1992)).
After analysis of the late loss and injury scores, the average late loss as a function of injury score was plotted for the test stents in each animal. […] The stents were in place in the vessel for 30 days.
Three days prior to insertion of stents each animal received 650 mg aspirin, 500 mg ticlopidine daily, and 120 mg verapamil daily. Aspirin (325 mg) daily was given throughout the duration of the study. The animals were fasted twelve hours prior to stent placement.
For stent placement, each animal was immobilized with an intramuscular injection of 0.5 mg/kg acepromazine, 20 mg/kg ketamine, and 0.05 mg/kg atropine.
Data set [5] is described as follows: In vitro release rate of drug from polymer-coated stents into ethanol-water bath. The format is physicochemical. The settings on record: at 96 hours; unstirred ethanol-water bath at 37° C.; poly-dl-lactic acid coated stents, average drug load 230 μg. The procedure:
The in vitro release rate of drug from the stents into an unstirred, ethanol-water bath at 37° C. was measured and the results are shown in FIG. 4. The six curves in FIG. 4 correspond to six stents carrying a poly-dl-lactic acid polymer loaded with 42-O-(2-ethoxyethyl) rapamycin. Each stent held between about 224–235 μg of drug, with an average drug load of 230 μg. The polymer-drug coated stents were sterilized at 25 KGy or at 27.5 KGy prior to measuring the release rate.
100 mg poly (dl-lactide) was dissolved into 2 mL acetone at room temperature. 5 mg 42-O-(2-ethoxyethyl) rapamycin was placed in a vial and 100 μL lactide solution added. A microprocessor-controlled syringe pump was used to precision dispense 4.5 μL of the drug containing poly-dl-lactide solution to the outer surface of a metal S-Stent (available from Biosensors International Inc, Newport Beach, Calif.).

The conditions of data set [6]: cited from earlier work.
Where [7] appears, read: drug load 225 μg, polymer coat 225 μg, stent length 15 mm.
Setting [8] is: high dose, drug load 325 μg, polymer coat 1300 μg, 6 months.
[9] abbreviates: high dose, drug load 325 μg, polymer coat 1300 μg, 28 days.
[10] abbreviates: low dose, drug load 180 μg, polymer coat 1300 μg.
Setting [11] is: med. dose, drug load 275 μg, polymer coat 640–780 μg.

As to `CCOCCO[C@@H]1CC[C@@H](C[C@@H](C)[C@@H]2CC(=O)[C@H](C)/C=C(\C)[C@@H](O)[C@@H](OC)C(=O)[C@H](C)C[C@H](C)/C=C/C=C/C=C(\C)[C@@H](OC)C[C@@H]3CC[C@@H](C)[C@@](O)(O3)C(=O)C(=O)N3CCCC[C@H]3C(=O)O2)C[C@H]1OC` [42-O-(2-ethoxyethyl) rapamycin], the “mean lumen late loss and percent diameter stenosis, comparison with the other stents” value in data set [1] (compared to rapamycin, everolimus, bare metal and polymer-coated stents) is “lowest mean lumen late loss and percent diameter stenosis”. Also, in data set [1] (setting [7]), the Mean lumen loss is 0.62 mm, the Neointimal area was 1.30 mm^2 and the Diameter stenosis is 14.8%. Also, the “inhibition of growth of smooth muscle cells” value in data set [2] is “effectively inhibited growth of smooth muscle cells”. Further, the “inhibition of growth of smooth muscle cells” value in data set [3] is given as “effectively inhibited growth of smooth muscle cells; also recorded: inhibited cellular growth as effectively as 42-O-hydroxy heptyl rapamycin (diamonds) or rapamycin”. Further, in data set [4], the “intercept of the zero injury (late loss)” value is reported as 0.126 mm and the “neointimal response to injury (slope of the regression line of late loss vs injury score)” value was found to be 0.83 mm/injury score increment. Also, the “neointimal thickness at 30 days (late loss), comparison with other stents” value in data set [4] (FIGS. 10-11) is given as “lower neointimal thickness at 30 days; also recorded: therapeutic effect when compared to bare, metal stents”. Also, the “drug load released into the bath” value in data set [5] is recorded as “less than half of the drug load released”.
Turning to `COC1CC2CCC(C)C(O)(O2)C(=O)C(=O)N2CCCCC2C(=O)OC(C(C)CC2CCC(OCCCCCCCO)C(OC)C2)CC(=O)C(C)C=C(C)C(O)C(OC)C(=O)C(C)CC(C)C=CC=CC=C1C` (stereo not shown) [42-O-hydroxy heptyl rapamycin], in data set [4], the “intercept of the zero injury (late loss)” value stood at 0.130 mm and the “neointimal response to injury (slope of the regression line of late loss vs injury score)” value amounted to 0.126 mm/injury score increment.
Take `CO[C@H]1C[C@@H]2CC[C@@H](C)[C@@](O)(O2)C(=O)C(=O)N2CCCC[C@H]2C(=O)O[C@H]([C@H](C)C[C@@H]2CC[C@@H](OCCO)[C@H](OC)C2)CC(=O)[C@H](C)/C=C(\C)[C@@H](O)[C@@H](OC)C(=O)[C@H](C)C[C@H](C)/C=C/C=C/C=C/1C` [everolimus]: the Mean lumen loss in data set [1] (setting [8]) is listed as 1.15 mm; in data set [1] (setting [9]) it was 0.84 mm; in data set [1] (setting [10]) it was 1.54 mm; in data set [1] (setting [11]), 0.85 mm. The Neointimal area in data set [1] (setting [8]) stood at 4.18 mm^2; in data set [1] (setting [9]), 3.54 mm^2; in data set [1] (setting [10]), 3.41 mm^2; in data set [1] (setting [11]), 2.97 mm^2. The Diameter stenosis in data set [1] (setting [8]) worked out at 68.5%; in data set [1] (setting [9]) it was 38.0%; in data set [1] (setting [10]), 53.0%; in data set [1] (setting [11]) it was 45.0%.
In the case of `CO[C@H]1C[C@@H]2CC[C@@H](C)[C@@](O)(O2)C(=O)C(=O)N2CCCC[C@H]2C(=O)O[C@H]([C@H](C)C[C@@H]2CC[C@@H](O)[C@H](OC)C2)CC(=O)[C@H](C)/C=C(\C)[C@@H](O)[C@@H](OC)C(=O)[C@H](C)C[C@H](C)/C=C/C=C/C=C/1C` [rapamycin], in data set [1] (setting [9]), the Mean lumen loss is given as 1.07 mm, the Neointimal area was determined as 3.75 mm^2 and the Diameter stenosis amounted to 55.0%. In data set [1] (setting [10]), this compound had a Mean lumen loss of 0.99 mm, a Neointimal area of 2.80 mm^2 and a Diameter stenosis of 43.0%. Moreover, the solubility in water in data set [6] was 20 micrograms per milliliter.
